Data taken from US10807968B2, “Substituted 2-(het)arylimidazolylcarboxyamides as pesticides” (Bayer CropScience Aktiengesellschaft, priority 2016, dated 2020).
Where two headings read alike, the source gives them in different places.

What was measured:
[1] = log P determination by HPLC on reversed-phase (C18) columns, OECD Guideline 117; assay type: physicochemical
Procedure: The log P values were determined in accordance with OECD Guideline 117 (EC Directive 92/69/EEC) by HPLC (high-performance liquid chromatography) using reversed-phase (RP) columns (C18), by the following methods:
[a] The LC-MS determination in the acidic range was carried out at pH 2.7 with 0.1% aqueous formic acid and acetonitrile (contains 0.1% formic acid) as mobile phases; linear gradient from 10% acetonitrile to 95% acetonitrile.
[b] LC-MS determination in the neutral range was carried out at pH 7.8 with 0.001 molar aqueous ammonium hydrogencarbonate solution and acetonitrile as mobile phases; linear gradient from 10% acetonitrile to 95% acetonitrile.

Tetranychus urticae = Tetranychus urticae - spray test, OP-resistant; assay type: in vivo; conditions: 500 g/ha, after 6 days, bean leaf discs
Procedure: Tetranychus Urticae—Spray Test, OP-Resistant
(§1) Solvent: 78.0 parts by weight of acetone • • 1.5 parts by weight of dimethylformamide
(§2) Emulsifier: alkylaryl polyglycol ether
(§3) To produce a suitable preparation of active compound, 1 part by weight of active compound is dissolved using the specified parts by weight of solvent and made up with water containing an emulsifier concentration of 1000 ppm until the desired concentration is attained. To produce further test concentrations, the formulation is diluted with emulsifier-containing water.
Discs of bean leaves (Phaseolus vulgaris) infested with all stages of the greenhouse red spider mite (Tetranychus urticae) are sprayed with an active compound formulation of the desired concentration.
After 6 days, the efficacy in % is determined. 100% means that all the spider mites have been killed; 0% means that no spider mites have been killed.

Myzus persicae [2] = assay: Myzus persicae - spray test (Chinese cabbage leaf discs); assay type: in vivo; conditions: 500 g/ha, after 6 days; for pest or weed control at 500 g/ha: Myzus persicae, foliar, 144 h, read-out: efficacy in % (aphids killed)
Procedure: Myzus persicae—Spray Test
Solvent: 78 parts by weight of acetone • • 1.5 parts by weight of dimethylformamide
as §2
as §3, with “an emulsi fier” for “an emulsifier”
Discs of Chinese cabbage leaves (Brassica pekinensis) infested by all stages of the green peach aphid (Myzus persicae) are sprayed with an active compound formulation of the desired concentration.
After 6 days, the efficacy in % is determined. 100% means that all the aphids have been killed; 0% means that no aphids have been killed.

Myzus persicae [3] = assay: Myzus persicae - oral test; assay type: in vivo; conditions: after 5 days; for efficacy in % (aphids killed): 20 ppm; for pest or weed control at 20 ppm: Myzus persicae, 120 h, read-out: efficacy in % (aphids killed)
Procedure: (§4) Solvent: 100 parts by weight of acetone
Subsequently, the plates are sealed with parafilm, which a mixed population of green peach aphids (Myzus persicae) within a second microtitre plate is able to puncture and imbibe the solution through it.
After 5 days, the efficacy in % is determined. 100% means that all the aphids have been killed; 0% means that no aphids have been killed.

Myzus persicae [4] = assay: Myzus persicae - spray test (MYZUPE), comparison with prior art; assay type: in vivo; conditions: read-out: % efficacy dat
Procedure: Myzus persicae—Spray Test (MYZUPE)
as §1, §2, §3
Discs of Chinese cabbage leaves (Brassica pekinensis) infested by all stages of the green peach aphid (Myzus persicae) are sprayed with an active compound preparation of the desired concentration.
After the desired period of time, the efficacy in % is determined. 100% means that all the aphids have been killed; 0% means that no aphids have been killed.

Myzus persicae [5] = assay: Myzus persicae - oral test (MYZUPE O), comparison with prior art; assay type: in vivo; conditions: 120 h, read-out: % efficacy dat
Procedure: Myzus persicae—Oral Test (MYZUPE O)
as §4
To produce a suitable preparation of active compound, 1 part by weight of active compound is dissolved using the specified parts by weight of solvent and made up with water until the desired concentration is attained.
50 μl of the active compound preparation are transferred into microtitre plates and made up to a final volume of 200 μl with 150 μl of IPL41 insect medium (33%+15% sugar). Subsequently, the plates are sealed with parafilm, which a mixed population of green peach aphids (Myzus persicae) within a second microtitre plate is able to puncture and imbibe the solution through it.
After 5 or 6 days (dat), the efficacy in % is determined. 100% means that all the aphids have been killed; 0% means that no aphids have been killed.

Myzus persicae [6] = assay: Myzus persicae - spray test (bell pepper plants); assay type: in vivo; conditions: 20 ppm, after 6 days
Procedure: Myzus persicae—Spray Test Solvent: 14 parts by weight of dimethylformamide Emulsifier: alkylaryl polyglycol ether […] To produce further test concentrations, the formulation is diluted with emulsifier-containing water. If the addition of ammonium salts or/and penetrants is required, these are each added in a concentration of 1000 ppm to the formulation solution. Bell pepper plants (Capsicum annuum) severely infested with the green peach aphid (Myzus persicae) are treated by spraying with the active compound formulation in the desired concentration.

[7] = reversed-phase (C18) HPLC column, pH 2.7, HPLC, acidic range pH 2.7, 0.1% aqueous formic acid/acetonitrile, read-out: logp-acidic
[8] = reversed-phase (C18) HPLC column, pH 7.8, HPLC, neutral range pH 7.8, 0.001 molar aqueous ammonium hydrogencarbonate/acetonitrile, read-out: logp-neutral
[9] = 120 h, MYZUPE, 100 g ai/ha, 5 dat
[10] = HPLC, acidic range pH 2.7, 0.1% aqueous formic acid/acetonitrile
[11] = HPLC, neutral range pH 7.8, 0.001 molar aqueous ammonium hydrogencarbonate/acetonitrile
[12] = 144 h, MYZUPE, 100 g ai/ha, 6 dat

SMILES | logp-acidic ([1]; pH 2.7) | logp-neutral ([1]; pH 7.8) | efficacy in % (aphids killed) (Myzus persicae [3]) [%] | pest or weed control at 20 ppm (Myzus persicae [3]) [%] | chromatographic logP [1, 7] | chromatographic logP [1, 8] | pest or weed control at 500 g/ha (Myzus persicae [2]) [%] | Emax at 4 ppm (Myzus persicae [5]; MYZUPE O, 4 ppm, 5 dat) [%] | other results
CC(C)Oc1ccc(-c2ncc(C(=O)N(C)c3cccnc3)n2C)cc1C#N [Example 105] | 1.55 | 1.87 | 100 | – | – | – | – | – | efficacy in % (spider mites killed) (Tetranychus urticae): 100%; efficacy in % (aphids killed) (Myzus persicae [2]): 90%
CN(C(=O)c1cnc(-c2cccc(C(F)(F)F)c2)n1C)c1cccnc1 [Example 52] | 1.64 | 1.99 | 100 | – | – | – | – | – | efficacy in % (spider mites killed) (Tetranychus urticae): 90%; efficacy in % (aphids killed) (Myzus persicae [2]): 100%
CCOC(=O)c1cc(-c2ncc(C(=O)N(C)c3cccnc3)n2C)on1 [Example 72] | 1.42 | 1.51 | 100 | – | – | – | – | – | efficacy in % (spider mites killed) (Tetranychus urticae): 90%
CN(C(=O)c1cnc(-c2ccc(C#N)c(C(F)(F)F)c2)n1C)c1cccnc1 [Example 16] | – | – | – | – | – | – | – | – | Emax at 100 g/ha (Myzus persicae [4]; 144 h): 90%; Emax at 4 ppm (Myzus persicae [5]): 100%
CN(C(=O)c1cnc(-c2cc3ccccc3o2)n1C)c1cccnc1 [Example 70] | – | – | – | 100 | – | – | – | – | chromatographic logP ([1]; HPLC, acidic range pH 2.7, 0.1% aqueous formic acid/acetonitrile, read-out: logp-acidic): 1.63; chromatographic logP ([1]; HPLC, neutral range pH 7.8, 0.001 molar aqueous ammonium hydrogencarbonate/acetonitrile, read-out: logp-neutral): 1.87; kill in % (aphids killed) (Myzus persicae [6]): 95%
COc1cc(-c2ncc(C(=O)N(C)c3cccnc3)n2C)cc(C(F)(F)F)n1 [Example 99] | – | – | – | 100 | 2.05 | 2.23 | 90 | 100 | Emax at 100 g/ha (Myzus persicae [4]; [9]): 70%
COc1ncc(-c2ncc(C(=O)N(C)c3cccnc3)n2C)cc1C#N [Example 68] | – | – | – | 100 | 1.2 | 1.44 | 100 | 100 | Emax at 100 g/ha (Myzus persicae [4]; [9]): 100%
CN(C(=O)c1cnc(-c2cc(Cl)cc(C(F)(F)F)c2)n1C)c1cccnc1 [Example 51] | 2.17 | 2.43 | 100 | – | – | – | – | – | kill in % (aphids killed) (Myzus persicae [6]): 100%
CN(C(=O)c1cnc(-c2ccc(F)c(C(F)(F)F)c2)n1C)c1cccnc1 [Example 50] | – | – | – | 100 | 1.72 | 2.08 | – | – | kill in % (aphids killed) (Myzus persicae [6]): 100%
CN(C(=O)c1cnc(-c2ccc(F)c(COC(=O)C3CC3)c2)n1C)c1cccnc1 [Example 46] | 0.73 | 1.35 | 100 | – | – | – | – | – | kill in % (aphids killed) (Myzus persicae [6]): 95%
CCN(C(=O)c1cnc(-c2ccccn2)n1C)c1cccnc1 [Example 77] | – | – | 100 | – | – | – | – | – | logp-acidic [1, 10]: 0.97; logp-neutral [1, 11]: 1.39; efficacy in % (aphids killed) (Myzus persicae [2]): 100%; kill in % (aphids killed) (Myzus persicae [6]): 100%
CN(C(=O)c1cnc(-c2ccc(Cl)cc2Cl)n1C)c1cccnc1 [Example 12] | – | – | 100 | – | – | – | – | – | logp-acidic [1, 10]: 1.66; kill in % (aphids killed) (Myzus persicae [6]): 100%
CN(C(=O)c1cnc(-c2cccc([S+]([O-])C(F)(F)F)c2)n1C)c1cccnc1 (stereo not shown) [Example 49] | 1.28 | 1.62 | 100 | – | – | – | – | – | kill in % (aphids killed) (Myzus persicae [6]): 100%
CN(C(=O)c1cnc(-c2cncc(C#N)c2)n1C)c1cccnc1 [Example 64] | – | – | – | 100 | 0.75 | 0.98 | 90 | – | Emax at 100 g/ha (Myzus persicae [4]; 120 h): 90%; Emax at 4 ppm (Myzus persicae [5]): 100%
CN(C)c1ncc(-c2ncc(C(=O)N(C)c3cccnc3)n2C)cc1C#N [Example 65] | – | – | – | 100 | 1.1 | 1.5 | 100 | 100 | Emax at 100 g/ha (Myzus persicae [4]; [9]): 90%
COc1ncc(Cl)cc1-c1ncc(C(=O)N(C)c2cccnc2)n1C [Example 87] | – | – | – | 100 | 1.35 | 1.64 | 100 | 100 | Emax at 100 g/ha (Myzus persicae [4]; [9]): 90%
O=C(Nc1cccnc1)c1c[nH]cn1 [Comparative Ex. 2, reference compound] | – | – | – | – | – | – | – | 0 | Emax at 100 g/ha (Myzus persicae [4]; [12]): 0%
Cc1nc(C(=O)Nc2cccnc2)c[nH]1 [Comparative Ex. 1, reference compound] | – | – | – | – | – | – | – | 0 | Emax at 100 g/ha (Myzus persicae [4]; MYZUPE, 100 g ai/ha, 5/6 dat): 0%
COc1cccc(-c2ncc(C(=O)N(C)c3cccnc3)n2C)n1 [Example 78] | – | – | – | 100 | 1.23 | 1.6 | 90 | 100 | Emax at 100 g/ha (Myzus persicae [4]; [9]): 70%
CN(C(=O)c1cnc(-c2ncccn2)n1C)c1cccnc1 [Example 4] | – | – | – | 100 | 0.35 | 0.73 | 90 | 100 | Emax at 100 g/ha (Myzus persicae [4]; [12]): 90%
CN(C(=O)c1cnc(-c2cccc(C(F)(F)C(F)(F)F)c2)n1C)c1cccnc1 [Example 57] | 2.09 | 2.40 | 100 | – | – | – | – | – | efficacy in % (spider mites killed) (Tetranychus urticae): 90%; efficacy in % (aphids killed) (Myzus persicae [2]): 100%
COc1ccc(-c2ncc(C(=O)N(C)c3cccnc3)n2C)c(OC)n1 [Example 81] | – | – | – | 100 | 0.89 | 1.69 | 100 | 70 | Emax at 100 g/ha (Myzus persicae [4]; [9]): 70%
CN(C(=O)c1cnc(-c2cccc(C(F)F)c2)n1C)c1cccnc1 [Example 48] | 1.22 | 1.65 | 100 | – | – | – | – | – | efficacy in % (aphids killed) (Myzus persicae [2]): 100%
CN(C(=O)c1cnc(-c2ccc(F)c(C#N)c2)n1C)c1cccnc1 [Example 63] | – | – | 100 | – | – | – | – | – | logp-acidic [1, 10]: 1.15; logp-neutral [1, 11]: 1.52; efficacy in % (aphids killed) (Myzus persicae [2]): 90%
